Activity calls are given as the source filed them.
Tests used:
[1] = molecular target: Troponin, cardiac muscle (Homo sapiens, UniProt P19429+P45379+P63316); assay: Fluorescence-based biochemical high throughput dose response assay for activators of the calcium sensitivity of cardiac Regulated Thin Filaments (RTF). [Related pubchem assays (depositor defined):AID493008, AID493018, AID504382, AID504383]; type: protein-complex assay
[2] = tested on: HEK293; assay: inhibition of NOD1-driven NF-kB reporter – cell-based, luminescence, uHTS, primary screen (AID 1578); type: functional; settings: Homo sapiens
[3] = tested on: HEK293; assay: cells; type: functional, cell-based; settings: Homo sapiens
[4] = tested on: HEK293; assay: cells; type: functional, cell-based; settings: Homo sapiens; remark: listed apart in the source
[5] = molecular target: Nucleotide-binding oligomerization domain-containing protein 2 (Homo sapiens, UniProt Q9HC29); assay: inhibition of NOD2-driven NF-kB reporter – cell-based, luminescence, uHTS, HEK293 (AID 1566); type: functional
[6] = tested on: HEK293; assay: NOD2 signaling inhibitors in MDP-stimulated cells, cell-based, uHTS, luminescence (AID 2001); type: functional; settings: Homo sapiens
[7] = tested on: HEK293; assay: cells; type: functional, cell-based; settings: Homo sapiens; remark: listed apart in the source
[8] = tested on: H9c2; assay: cells; type: functional, cell-based; settings: Rattus norvegicus, H9c2, Myocardium;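 further: confirmatory concentration-response retest of ultra-high-throughput screening hits for modulation of myocardial damage; cell death induced by hydrogen peroxide oxidative stress; compound pretreatment for 60 min then peroxide exposure for 2 h; potency is for protecting the cells against peroxide damage rather than for killing them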
[9] = tested on: BJ; assay: BJ-TERT fibroblast viability loss – cell-based, RAS-independent, luminescence, dose response (AID 1933); type: functional; settings: Homo sapiens
[10] = tested on: BJ; assay: cells; type: functional, cell-based; settings: Homo sapiens
[11] = tested on: BJ; assay: BJ-TERT-LT-ST fibroblast viability loss – cell-based, RAS-independent, luminescence, dose response (AID 1935); type: functional; settings: Homo sapiens;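 further: BJ fibroblasts immortalized with TERT plus LT and ST oncogenes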
[12] = DRD fibroblast viability loss – cell-based, non-viral oncogenic, luminescence, dose response (AID 1934); type: functional; settings: Homo sapiens
[13] = molecular target: T1, Microphthalmia-associated transcription factor (Homo sapiens, UniProt O75030); assay: reducers of TRPM1 reporter luminescence, concentration series – cell-based, SK-MEL-5, cherry-picked, set 3, MITF inhibitor project, dose response (AID 493073); type: functional;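 further: SK-MEL-5 melanoma cells with luciferase driven by the MITF target TRPM1 promoter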
T1 sequence (O75030 whole entry): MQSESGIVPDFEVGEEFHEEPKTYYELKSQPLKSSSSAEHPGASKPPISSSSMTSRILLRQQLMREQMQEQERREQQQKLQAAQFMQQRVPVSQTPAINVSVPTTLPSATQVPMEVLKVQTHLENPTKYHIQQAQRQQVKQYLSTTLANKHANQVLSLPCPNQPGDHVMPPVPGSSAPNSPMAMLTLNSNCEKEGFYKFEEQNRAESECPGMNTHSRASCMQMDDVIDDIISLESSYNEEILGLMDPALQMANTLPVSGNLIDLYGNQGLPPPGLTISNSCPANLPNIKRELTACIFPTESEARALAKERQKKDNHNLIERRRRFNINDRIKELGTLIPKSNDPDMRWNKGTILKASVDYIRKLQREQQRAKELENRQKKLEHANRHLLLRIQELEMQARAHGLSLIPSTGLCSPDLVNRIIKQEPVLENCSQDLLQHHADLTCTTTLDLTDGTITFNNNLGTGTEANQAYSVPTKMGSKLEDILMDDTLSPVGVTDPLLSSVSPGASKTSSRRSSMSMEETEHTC

[14] = molecular target: T2, Replicative DNA helicase DnaB (Mycobacterium tuberculosis, UniProt P9WMR3); assay: DnaB intein splicing inhibitors, dose response, biochemical, cell-free fluorescence (AID 449749); type: functional
T2 sequence (P9WMR3 whole entry): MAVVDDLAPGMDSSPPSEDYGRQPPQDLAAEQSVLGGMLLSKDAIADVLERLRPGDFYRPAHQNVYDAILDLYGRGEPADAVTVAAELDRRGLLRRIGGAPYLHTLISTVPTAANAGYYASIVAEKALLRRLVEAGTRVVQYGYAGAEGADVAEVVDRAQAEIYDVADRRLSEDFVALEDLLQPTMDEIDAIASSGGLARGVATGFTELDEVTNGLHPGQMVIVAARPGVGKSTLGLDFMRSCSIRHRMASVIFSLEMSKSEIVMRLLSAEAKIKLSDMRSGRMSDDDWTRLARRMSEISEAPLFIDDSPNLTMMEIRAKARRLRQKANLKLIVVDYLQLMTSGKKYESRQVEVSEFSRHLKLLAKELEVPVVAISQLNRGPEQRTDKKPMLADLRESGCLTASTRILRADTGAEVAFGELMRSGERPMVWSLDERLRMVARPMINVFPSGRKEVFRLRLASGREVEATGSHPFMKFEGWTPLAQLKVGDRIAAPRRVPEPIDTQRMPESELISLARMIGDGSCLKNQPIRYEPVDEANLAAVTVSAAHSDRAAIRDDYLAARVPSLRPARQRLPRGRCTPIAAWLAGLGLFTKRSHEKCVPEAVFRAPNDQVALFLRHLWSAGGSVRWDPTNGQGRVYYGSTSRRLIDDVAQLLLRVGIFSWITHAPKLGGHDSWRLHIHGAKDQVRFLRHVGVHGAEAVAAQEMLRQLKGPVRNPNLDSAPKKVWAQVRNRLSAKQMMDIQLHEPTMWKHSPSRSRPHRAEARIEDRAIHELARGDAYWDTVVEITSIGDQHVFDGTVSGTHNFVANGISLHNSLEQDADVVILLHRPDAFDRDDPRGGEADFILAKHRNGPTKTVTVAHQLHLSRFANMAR

[15] = molecular target: T3, Protein RecA (Mycobacterium tuberculosis, UniProt P9WHJ3); assay: Fluorescence Cell-Free Homogeneous Dose Retest to Identify Inhibitors of RecA-Intein Splicing Activity. [Related pubchem assays (depositor defined):AID2097, AID2223, AID489010, AID492950]; type: functional
T3 sequence (P9WHJ3 whole entry): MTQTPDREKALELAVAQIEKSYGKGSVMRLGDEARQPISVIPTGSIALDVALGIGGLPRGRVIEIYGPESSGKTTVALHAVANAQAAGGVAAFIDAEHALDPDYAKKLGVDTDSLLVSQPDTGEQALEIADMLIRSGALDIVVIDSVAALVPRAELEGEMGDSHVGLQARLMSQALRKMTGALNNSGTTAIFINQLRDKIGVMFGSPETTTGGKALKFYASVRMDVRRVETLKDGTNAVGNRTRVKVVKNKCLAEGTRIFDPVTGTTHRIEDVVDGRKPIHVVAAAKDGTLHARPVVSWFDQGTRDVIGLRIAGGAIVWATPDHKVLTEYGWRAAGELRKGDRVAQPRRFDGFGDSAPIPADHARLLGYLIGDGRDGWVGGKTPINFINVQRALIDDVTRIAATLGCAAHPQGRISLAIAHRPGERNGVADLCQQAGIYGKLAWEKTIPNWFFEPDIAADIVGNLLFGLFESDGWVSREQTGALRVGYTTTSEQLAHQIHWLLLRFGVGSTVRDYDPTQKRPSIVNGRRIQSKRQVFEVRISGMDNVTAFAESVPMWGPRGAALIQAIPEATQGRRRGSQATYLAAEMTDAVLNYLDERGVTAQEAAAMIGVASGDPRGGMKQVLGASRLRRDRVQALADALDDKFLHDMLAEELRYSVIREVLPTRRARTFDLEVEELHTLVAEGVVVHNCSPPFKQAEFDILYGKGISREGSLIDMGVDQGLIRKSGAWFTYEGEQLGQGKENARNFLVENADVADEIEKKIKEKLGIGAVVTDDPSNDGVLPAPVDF

[16] = tested on: Streptococcus sp. 'group A'; assay: Streptococcus pyogenes SK(-)GAS viability under kanamycin – luminescence, BacTiterGlo, confirmation, counter-screen for streptokinase expression inhibitor project, dose response (AID 1900); type: functional, organism-based
[17] = molecular target: T4, Streptokinase A (Streptococcus pyogenes serotype M1, UniProt P10520); assay: viability-normalized secreted streptokinase activity reduction – plasminogen activation absorbance, OD405, dose response (AID 1914); type: functional, Streptococcus pyogenes M1 GAS;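 further: secreted streptokinase activity via plasminogen activation per viability signal from cell pellet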
T4 sequence (P10520 whole entry): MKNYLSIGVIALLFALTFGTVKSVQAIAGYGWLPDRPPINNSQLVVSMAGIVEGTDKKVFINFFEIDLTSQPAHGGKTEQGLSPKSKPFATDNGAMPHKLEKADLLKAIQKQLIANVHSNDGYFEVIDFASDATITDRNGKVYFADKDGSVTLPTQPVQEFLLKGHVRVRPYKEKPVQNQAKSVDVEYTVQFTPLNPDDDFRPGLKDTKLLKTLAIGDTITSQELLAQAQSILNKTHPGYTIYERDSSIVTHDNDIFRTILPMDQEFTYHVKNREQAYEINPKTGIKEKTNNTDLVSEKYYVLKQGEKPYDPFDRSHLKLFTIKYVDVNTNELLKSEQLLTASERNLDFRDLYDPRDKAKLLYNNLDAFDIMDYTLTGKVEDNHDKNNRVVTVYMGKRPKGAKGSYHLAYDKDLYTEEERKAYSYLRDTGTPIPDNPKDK

[18] = molecular target: T5, Kappa-type opioid receptor (Homo sapiens, UniProt P41145); type: functional
[19] = molecular target: Beta-galactosidase (Escherichia coli, UniProt Q8VNN2); type: functional
[20] = molecular target: T5, Kappa-type opioid receptor; type: functional; remark: listed apart in the source
[21] = tested on: Streptococcus; assay: GAS UMAA2166 growth inhibition – luminescence, BacTiterGlo, counter-screen for streptokinase expression inhibitor project, dose response (AID 1915); type: functional, organism-based;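 further: potency for reduction of bacterial viability or growth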
[22] = molecular target: T6, Insulin-degrading enzyme (Homo sapiens, UniProt P14735); assay: recombinant IDE activation, cell-free – biochemical, fluorescence polarization, counter-screen for IDE activator project, dose response (AID 588681)
T6 sequence (P14735 whole entry): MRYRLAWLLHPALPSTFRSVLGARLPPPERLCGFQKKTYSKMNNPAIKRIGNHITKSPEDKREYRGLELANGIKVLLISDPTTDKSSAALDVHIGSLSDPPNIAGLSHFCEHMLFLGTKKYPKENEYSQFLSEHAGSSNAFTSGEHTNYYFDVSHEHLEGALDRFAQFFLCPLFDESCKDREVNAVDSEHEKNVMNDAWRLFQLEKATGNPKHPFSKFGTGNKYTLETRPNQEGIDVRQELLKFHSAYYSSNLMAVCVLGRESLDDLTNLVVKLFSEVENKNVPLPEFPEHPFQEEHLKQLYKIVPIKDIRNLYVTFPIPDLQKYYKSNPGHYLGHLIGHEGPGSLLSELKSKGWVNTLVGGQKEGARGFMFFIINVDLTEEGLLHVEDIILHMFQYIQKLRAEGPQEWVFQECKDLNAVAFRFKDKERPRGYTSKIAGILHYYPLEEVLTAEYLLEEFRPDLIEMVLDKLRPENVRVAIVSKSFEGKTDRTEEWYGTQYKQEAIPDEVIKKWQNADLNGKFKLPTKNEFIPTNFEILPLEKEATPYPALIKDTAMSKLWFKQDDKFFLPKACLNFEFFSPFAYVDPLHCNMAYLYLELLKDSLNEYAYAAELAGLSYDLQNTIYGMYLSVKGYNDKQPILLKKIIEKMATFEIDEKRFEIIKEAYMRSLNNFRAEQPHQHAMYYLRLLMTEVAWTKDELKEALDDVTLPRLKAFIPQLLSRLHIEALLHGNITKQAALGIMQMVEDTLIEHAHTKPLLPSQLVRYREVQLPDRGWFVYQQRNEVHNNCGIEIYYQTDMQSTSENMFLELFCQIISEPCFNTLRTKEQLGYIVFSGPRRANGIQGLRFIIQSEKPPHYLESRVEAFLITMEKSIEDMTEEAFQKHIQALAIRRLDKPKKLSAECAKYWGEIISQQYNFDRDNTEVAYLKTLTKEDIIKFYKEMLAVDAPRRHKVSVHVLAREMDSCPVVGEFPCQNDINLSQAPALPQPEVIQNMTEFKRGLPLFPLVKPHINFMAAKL

[23] = molecular target: T6, Insulin-degrading enzyme; assay: cellular IDE activation of Abeta substrate cleavage – fluorescence polarization, HEK cells, dose response (AID 588439); type: functional, cell-based
[24] = tested on: INS1; assay: INS-1E survival protection against cytokine death – cell-based, luminescence, retest, dose response (AID 449756); type: functional; settings: Rattus norvegicus;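 further: cell death triggered by IL-1 beta plus TNF-alpha plus IFN-gamma mixture; protective hits raise ATP signal compared with cytokine alone wells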
[25] = tested on: HEK293; assay: membrane integrity loss in HEK cells – cell-based, fluorescence, cytotoxicity control for IDE activator project, dose response (AID 588440); type: functional; settings: Homo sapiens;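 further: cytotoxicity by LDH release measuring loss of membrane integrity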
[26] = tested on: HEK293; assay: optical interference in Abeta FP readout, dose response, artefact control for IDE activator project, biochemical, fluorescence polarization (AID 588442); type: functional, cell-based; settings: Homo sapiens

O=C(O)c1ncc(-c2ccccc2)cn1
EC50 [1]: > 71.5 µM (inactive)

Cc1nc(N2CCN(c3ccccn3)CC2)c2c(C)c(C(=O)Nc3ccccc3F)sc2n1
EC50 [2]: 12.4 µM (active) | IC50 [3]: 5.78 µM (active) | IC50 [4]: > 20 µM (inactive) | EC50 [5]: 3.56 µM (active) | IC50 [6]: 5.23 µM (active) | IC50 [7]: 14.3 µM (active) | IC50 [8]: > 79 µM (inactive)

O=C(Nc1ccccc1-c1ccccc1)c1ccc(Cl)c([N+](=O)[O-])c1
EC50 [1]: > 71.5 µM (inactive)

CC(=O)Nc1cc(C(=O)NCc2ccco2)ccc1Sc1ccc(F)cc1
EC50 [1]: > 71.5 µM (inactive)

COCCN(C(=O)CCl)C(C(=O)NC1CCCCC1)c1ccccc1C (centres undefined)
EC50 [2]: 4.73 µM (active) | EC50 [9]: 8.42 µM (active) | IC50 [3]: 6.54 µM (active) | EC50 [10]: 14.4 µM (active) | IC50 [4]: 14.9 µM (active) | EC50 [5]: > 20 µM (inactive) | IC50 [6]: 6.74 µM (active) | IC50 [7]: > 20 µM (inactive) | EC50 [11]: > 150 µM (inconclusive) | EC50 [12]: 10.5 µM (active) | AC50 [13]: 17.8 µM (active) | AC50 [14]: 25 µM (active) | EC50 [15]: 1.28 µM (active)

CCOc1cc(/C=N/Nc2cc(C)nc(-n3nc(C)cc3C)n2)ccc1O
EC50 [16]: 1.67 µM (active) | EC50 [17]: > 150 µM (not active) | IC50 [18]: > 31.5 µM (inactive) | EC50 [19]: > 31.5 µM (inactive) | IC50 [20]: > 32 µM | EC50 [21]: 32.7 µM (active) | EC50 [22]: > 54.7 µM (inactive) | EC50 [23]: > 54.7 µM (inactive) | AC50 [24]: 0.862 µM (active) | IC50 [25]: 32.3 µM (inactive) | EC50 [26]: > 54.7 µM (inactive)

— ChEMBL document CHEMBL1201862, “PubChem BioAssay data set” (2004)
